Test results taken from ChEMBL document CHEMBL1201862, “PubChem BioAssay data set” (2004).
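48-hour exposure; five concentrations; linearly interpolated endpoints. GI50 is the concentration that inhibits growth by half.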 Active and inactive are the calls of the source. No stated cut-off is given here; in the data, active = GI50 up to about 1.1 µM and inactive = higher.

Experiments:
Assay in all cases: growth of human tumour cells (NCI), 48 h
[1] = test system: CCRF-CEM
[2] = test system: Hs-578T
[3] = test system: NCI-H522
[4] = test system: DU-145
[5] = test system: RXF 393
[6] = test system: SK-MEL-28
[7] = test system: SNB-75
[8] = test system: HCT-15
[9] = test system: IGROV-1
[10] = test system: HOP-92
[11] = test system: SN12C
[12] = test system: LOX IMVI
[13] = test system: NCI-H23
[14] = test system: SK-OV-3
[15] = test system: SF-268
[16] = test system: CAKI-1
[17] = test system: SW-620
[18] = test system: UO-31
[19] = test system: SK-MEL-2

Row | SMILES | GI50 [1] | GI50 [2] | GI50 [3] | GI50 [4] | GI50 [5] | GI50 [6] | GI50 [7] | GI50 [8] [µM] | GI50 [9] | GI50 [10] | GI50 [11] | GI50 [12] | GI50 [13] | GI50 [14] | GI50 [15] | GI50 [16] | GI50 [17] | GI50 [18] | GI50 [19]
1 | CC(=O)O[C@@H]1C[C@@]23C[C@@]24CC[C@H](OC2OCC(O)C(O)C2O)C(C)(C)[C@@H]4CC=C3[C@]2(C)C[C@@H]3OC4(C[C@@H](C)[C@@H]3[C@@]12C)OC(O)[C@@]1(C)O[C@@H]41 (some centres not stated) | 11.7 µM (inactive) | 40.4 µM (inactive) | 23 µM (inactive) | 43.2 µM (inactive) | 15.9 µM (inactive) | 41.2 µM (inactive) | 25 µM (inactive) | 31.6 | 36.5 µM (inactive) | 54.3 µM (inactive) | 31.5 µM (inactive) | 23.4 µM (inactive) | 34 µM (inactive) | 30.4 µM (inactive) | 58.7 µM (inactive) | 46.1 µM (inactive) | 36.5 µM (inactive) | 41.8 µM (inactive) | 19.7 µM (inactive)
2 | O=c1oc2ccccc2c(-c2ccc(O)cc2)c1Oc1ccccc1 | 25.4 µM (inactive) | 7.5 µM (inactive) | 3.47 µM (inactive) | 4.25 µM (inactive) | 23 µM (inactive) | 18.8 µM (inactive) | > 46.8 µM (inactive) | 7.83 | 6.44 µM (inactive) | 10.2 µM (inactive) | 21.5 µM (inactive) | 9.93 µM (inactive) | 6.32 µM (inactive) | 34.8 µM (inactive) | 8.57 µM (inactive) | 24.5 µM (inactive) | 37.8 µM (inactive) | 7.73 µM (inactive) | 7.1 µM (inactive)
3 | Cc1cc(CN2CCCCC2)c(O)c(CN2CCCCC2)c1 | 41.3 µM (inactive) | > 100 µM (inactive) | > 100 µM (inactive) | > 100 µM (inactive) | > 100 µM (inactive) | > 100 µM (inactive) | > 100 µM (inactive) | > 100 | > 100 µM (inactive) | > 100 µM (inactive) | > 100 µM (inactive) | > 100 µM (inactive) | > 100 µM (inactive) | > 100 µM (inactive) | > 100 µM (inactive) | > 100 µM (inactive) | > 100 µM (inactive) | > 100 µM (inactive) | > 100 µM (inactive)
4 | C=CCOC(=O)[C@@H]1C[C@@H](OC(C)(C)C)CN1C(=O)[C@@H]1[C@H]2OC(C)(C)O[C@H]2CN1C(=O)OCC1c2ccccc2-c2ccccc21 | 16.6 µM (inactive) | 21.1 µM (inactive) | 0.383 µM (active) | 3.45 µM (inactive) | 10.2 µM (inactive) | 18.1 µM (inactive) | 17.5 µM (inactive) | 11.4 | 17 µM (inactive) | 18.1 µM (inactive) | 17 µM (inactive) | 2.3 µM (inactive) | 17.6 µM (inactive) | 17.2 µM (inactive) | 20.8 µM (inactive) | 4.88 µM (inactive) | 20.9 µM (inactive) | 0.15 µM (active) | 32.2 µM (inactive)
5 | CCOCc1nc2c(OC)c(-c3nc4ccc(N5CCN(C)CC5)cc4[nH]3)cc(OC)c2[nH]1 | 12.7 µM (inactive) | 34.2 µM (inactive) | 23.5 µM (inactive) | 68.5 µM (inactive) | 16 µM (inactive) | 18.6 µM (inactive) | 28.9 µM (inactive) | 44.2 | 91.6 µM (inactive) | > 100 µM (inactive) | 74.3 µM (inactive) | 21.1 µM (inactive) | 37.8 µM (inactive) | 71.4 µM (inactive) | 63.4 µM (inactive) | 27.6 µM (inactive) | 34.7 µM (inactive) | 22.1 µM (inactive) | 20.6 µM (inactive)
6 | O=c1c2ccccc2c2ccccc2c(=O)n1Cc1ccc2c(c1)OCO2 | 19.1 µM (inactive) | 37.9 µM (inactive) | 30.8 µM (inactive) | 49.9 µM (inactive) | 36 µM (inactive) | 56.6 µM (inactive) | 42.7 µM (inactive) | 17 | 8.51 µM (inactive) | > 94.8 µM (inactive) | 37.5 µM (inactive) | 40 µM (inactive) | 24.7 µM (inactive) | 41.4 µM (inactive) | 59.7 µM (inactive) | 69.7 µM (inactive) | 33.3 µM (inactive) | 49.5 µM (inactive) | 39.7 µM (inactive)
7 | C[C@]12CCC(N3CCCC3)CC1=CC[C@@H]1[C@@H]2CC[C@]2(C)C(O)[C@H](n3ccnc3)C[C@@H]12 (some centres not stated) | 15.7 µM (inactive) | > 10 µM (inactive) | 49.9 µM (inactive) | > 100 µM (inactive) | 17.4 µM (inactive) | 26.1 µM (inactive) | > 10 µM (inactive) | 20.9 | 59.8 µM (inactive) | > 100 µM (inactive) | 46.5 µM (inactive) | 34.4 µM (inactive) | 53.6 µM (inactive) | – | > 10 µM (inactive) | > 100 µM (inactive) | 45.7 µM (inactive) | 44.6 µM (inactive) | 41.9 µM (inactive)
